From ChEMBL document CHEMBL1201862, “PubChem BioAssay data set” (2004) come the findings set out here.

Some test systems named below: HCT-116; HCT-15; ACHN; HOP-92; A498; MOLT-4; NCI-H460; SK-MEL-28; NCI-H522; OVCAR-4; A549; SK-MEL-2; U-251; HCC 2998; K562; KM12; OVCAR-8; RPMI-8226; HOP-62; RXF 393.
What all share (experiment): growth of human tumour cells (NCI), 48 h

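These data come from cells grown in 96-well plates and exposed to compound for 48 hours at five concentrations. Abbreviation: GI50, concentration required for 50% inhibition of growth.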 Active and inactive are the calls of the source. Rule as the data show it: active = GI50 up to about 1.1 µM and inactive = higher.

`CCn1c2ccccc2n2c(=O)c3c(c(C#N)c12)CCCC3`: the GI50 was > 100 µM (inactive) in the assay on HCT-116; greater than 100 µM in the assay on HCT-15; > 100 µM (inactive) in the assay with ACHN; > 100 µM (inactive) in the assay on HOP-92; > 100 µM (inactive) in the assay on A498; > 100 µM (inactive) with MOLT-4. Besides, the GI50 in the assay with NCI-H460, in the assay with SK-MEL-28, in the assay on NCI-H522, in the assay on OVCAR-4, with A549 and in the assay with SK-MEL-2 was > 100 µM (inactive) in each case. Besides, the GI50 in the assay on U-251, with HCC 2998, with K562, in the assay with KM12 and in the assay with OVCAR-8 was > 100 µM (inactive) in each case.

Consider `COc1ccc(N2C(=O)C(N3C(=O)C=CC3=O)C2C=O)cc1` (stereo not given), for which the GI50 with HCT-116 was > 100 µM (inactive); in the assay on HCT-15 it was greater than 100 µM; in the assay with ACHN it was > 100 µM (inactive); in the assay on HOP-92, > 100 µM (inactive); with A498 it was > 100 µM (inactive); in the assay on RPMI-8226, > 100 µM (inactive). Further, the GI50 in the assay with NCI-H460, with SK-MEL-28, in the assay with NCI-H522, in the assay on A549, in the assay on SK-MEL-2 and in the assay on U-251 was > 100 µM (inactive) throughout. In addition, the GI50 in the assay with HCC 2998, in the assay with HOP-62, in the assay on K562, in the assay with KM12 and in the assay on OVCAR-8 was > 100 µM (inactive) in each case.

Turning to `CCOC(=O)c1cnc2c(ccc3ncccc32)c1NCCCN(CC)CC`, the GI50 was 80.5 µM in the assay on HCT-15; > 100 µM (inactive) in the assay with ACHN; 65.8 µM (inactive) with HOP-92; > 100 µM (inactive) in the assay with A498; 23 µM (inactive) in the assay on MOLT-4; 38.2 µM (inactive) with RPMI-8226. For the same compound, the GI50 with NCI-H460 is 35.2 µM (inactive); in the assay on SK-MEL-28 it was 50 µM (inactive); with NCI-H522 it was > 100 µM (inactive); in the assay on OVCAR-4 it was 30 µM (inactive); in the assay with A549 it was > 100 µM (inactive); in the assay on SK-MEL-2, > 100 µM (inactive). Moreover, the GI50 with U-251 is 72.4 µM (inactive); in the assay on HCC 2998, > 100 µM (inactive); in the assay with HOP-62 it was > 100 µM (inactive); in the assay with K562 it was 27.2 µM (inactive); in the assay with KM12, 38.3 µM (inactive).

Take `C=CCOC(=O)CCCCCCCCCCCCCCCOC(=O)C1=C(CCC[C@@H](C)O[Si](C)(C)C(C)(C)C)NC(=O)N2[C@H](CC3(CC/C=C\[C@H](CC)O[Si](C(C)C)(C(C)C)C(C)C)OCCO3)CC[C@H]12`: the GI50 in the assay with HCT-116 was > 100 µM (inactive); with HCT-15 it was greater than 100 µM; in the assay on ACHN, > 100 µM (inactive); with HOP-92, 18.9 µM (inactive); in the assay with A498 it was > 100 µM (inactive); with RPMI-8226, > 100 µM (inactive). The GI50 in the assay on NCI-H460, in the assay with SK-MEL-28, in the assay with NCI-H522, in the assay on OVCAR-4, with A549 and with SK-MEL-2 was > 100 µM (inactive) each time. Also, the GI50 in the assay on U-251, with HCC 2998, in the assay with HOP-62 and with KM12 was > 100 µM (inactive) each time.

For `CCN(CC)CC(=O)N1CCc2c([nH]c3ccccc23)C1c1cccnc1` (stereo not given), the GI50 with HCT-116 was > 100 µM (inactive); with HCT-15 it was greater than 100 µM; in the assay with ACHN, > 100 µM (inactive); in the assay with HOP-92, 31.4 µM (inactive); in the assay on A498, > 100 µM (inactive); in the assay on MOLT-4 it was > 100 µM (inactive). Also, the GI50 in the assay with RPMI-8226 was 71.8 µM (inactive); in the assay with NCI-H460, > 100 µM (inactive); with SK-MEL-28, > 100 µM (inactive); in the assay on NCI-H522, > 100 µM (inactive); with OVCAR-4, > 100 µM (inactive); with A549, > 100 µM (inactive). Moreover, the GI50 in the assay with U-251, with HCC 2998, in the assay with HOP-62, in the assay with K562, in the assay on KM12 and in the assay on OVCAR-8 was > 100 µM (inactive) throughout.

As to `O=C1NN(Cc2ccccc2)C(=O)N2CCC[C@@H]12`, the GI50 in the assay with HCT-116 is > 100 µM (inactive); with HCT-15, greater than 100 µM; with ACHN it was > 100 µM (inactive); in the assay with RXF 393, > 100 µM (inactive); with HOP-92, > 100 µM (inactive); in the assay with A498, > 100 µM (inactive). Besides, the GI50 in the assay on MOLT-4, in the assay on NCI-H460, in the assay on SK-MEL-28, in the assay with OVCAR-4, in the assay on A549 and in the assay with SK-MEL-2 was > 100 µM (inactive) in each case. Further, the GI50 in the assay on HCC 2998, in the assay with HOP-62, in the assay on KM12 and with OVCAR-8 was > 100 µM (inactive) each time.

As to `COc1ccc([C@@]2(O)c3c(ccc(O)c3OC)[C@H]2OC)c(OC)c1`, the GI50 is 33.5 µM (inactive) in the assay on HCT-116; 86.1 µM (inactive) in the assay on ACHN; 53.6 µM (inactive) with HOP-92; > 100 µM (inactive) in the assay on A498; 34.7 µM (inactive) with MOLT-4; 30.1 µM (inactive) with RPMI-8226. The GI50 with NCI-H460 was > 100 µM (inactive); with SK-MEL-28, 47.8 µM (inactive); in the assay on NCI-H522, 28.8 µM (inactive); in the assay on OVCAR-4, 67.9 µM (inactive); in the assay on A549, 85.1 µM (inactive); in the assay on SK-MEL-2 it was 63.4 µM (inactive). Further, the GI50 in the assay on U-251 was 45.8 µM (inactive); with HCC 2998, 44.2 µM (inactive); in the assay with HOP-62, > 100 µM (inactive); with K562 it was 36.5 µM (inactive); with KM12, 39.4 µM (inactive); in the assay on OVCAR-8, 51.5 µM (inactive).

As for `CCOC(=O)/C=C/[C@@H](CC)O[Si](C(C)C)(C(C)C)C(C)C`, the GI50 was > 100 µM (inactive) in the assay with HCT-116; greater than 100 µM in the assay with HCT-15; > 100 µM (inactive) in the assay on ACHN; > 100 µM (inactive) in the assay with HOP-92; > 100 µM (inactive) in the assay on A498; > 100 µM (inactive) in the assay with MOLT-4. Besides, the GI50 in the assay with RPMI-8226 is 50.6 µM (inactive); with NCI-H460, > 100 µM (inactive); in the assay with NCI-H522 it was > 100 µM (inactive); with OVCAR-4, > 100 µM (inactive); with A549, > 100 µM (inactive); in the assay on SK-MEL-2, > 100 µM (inactive). Moreover, the GI50 is > 100 µM (inactive) in the assay with U-251; > 100 µM (inactive) with HCC 2998; 67.6 µM (inactive) in the assay on HOP-62; > 100 µM (inactive) with K562; > 100 µM (inactive) with KM12; > 100 µM (inactive) in the assay with OVCAR-8.

Turning to `O=C(NC1C2CC3CC(C2)CC1C3)c1ccncn1` (stereo not given), the GI50 was > 100 µM (inactive) in the assay with HCT-116; greater than 100 µM with HCT-15; > 100 µM (inactive) in the assay with ACHN; > 100 µM (inactive) with HOP-92; > 100 µM (inactive) in the assay with A498; > 100 µM (inactive) in the assay on NCI-H460. Besides, the GI50 in the assay on SK-MEL-28, in the assay with NCI-H522, with OVCAR-4, in the assay with A549, with SK-MEL-2 and with U-251 was > 100 µM (inactive) throughout. Further, the GI50 in the assay with HCC 2998, in the assay on HOP-62, with K562, with KM12 and in the assay on OVCAR-8 was > 100 µM (inactive) in each case.

Turning to `Cc1nc(N)c(N2CCN(S(=O)(=O)N(Cc3ccccc3)Cc3ccccc3)CC2)c(O)n1`, the GI50 with HCT-116 is 28.1 µM (inactive); in the assay with HCT-15 it was greater than 100 µM; in the assay on ACHN, 18.2 µM (inactive); with A498 it was > 10 µM (inactive); in the assay on MOLT-4 it was > 100 µM (inactive); in the assay on RPMI-8226 it was > 100 µM (inactive). Further, the GI50 with NCI-H460 was 40.6 µM (inactive); in the assay on SK-MEL-28, 17.6 µM (inactive); in the assay with NCI-H522, > 10 µM (inactive); with OVCAR-4 it was 22.2 µM (inactive); in the assay on A549, 82.6 µM (inactive); in the assay on SK-MEL-2, 55.2 µM (inactive). The GI50 in the assay on U-251 is 16.9 µM (inactive); in the assay on HCC 2998 it was 87.3 µM (inactive); with HOP-62, 31.6 µM (inactive); with K562, > 100 µM (inactive); in the assay on KM12 it was 56.9 µM (inactive); in the assay with OVCAR-8 it was 35.2 µM (inactive).

For the compound `COc1ccc(CC2C3=C(CCCC3)CCN2C)cc1` (stereo not given), the GI50 is 58.2 µM (inactive) in the assay on HCT-116; greater than 100 µM in the assay on HCT-15; > 100 µM (inactive) with ACHN; > 100 µM (inactive) in the assay with RXF 393; > 100 µM (inactive) with A498; > 100 µM (inactive) in the assay with MOLT-4. The GI50 in the assay with RPMI-8226, in the assay with NCI-H460, with SK-MEL-28, in the assay on OVCAR-4, in the assay on A549 and with SK-MEL-2 was > 100 µM (inactive) throughout. Moreover, the GI50 in the assay on U-251 was > 100 µM (inactive); in the assay with HCC 2998, 45.4 µM (inactive); with HOP-62 it was > 100 µM (inactive); with K562, 39 µM (inactive); in the assay on KM12, > 100 µM (inactive); in the assay on OVCAR-8 it was > 100 µM (inactive).
